Results reported in ChEMBL document CHEMBL3044687, “Microwave-assisted synthesis of some novel and potent antibacterial and antifungal compounds with biological screening” (2012).

Legend:
Format in all cases: functional
Details in all cases: read-out: DIZ
Escherichia coli [1] = experiment: Antibacterial activity against Escherichia coli at 100 ug/ml after 24 hr by disk diffusion method
Bacillus subtilis [2] = experiment: Antibacterial activity against Bacillus subtilis at 200 ug/ml after 24 hr by disk diffusion method
Candida albicans [3] = experiment: Antifungal activity against Candida albicans at 50 ug/ml after 48 hr by disk diffusion method
Pseudomonas aeruginosa [4] = experiment: Antibacterial activity against Pseudomonas aeruginosa at 200 ug/ml after 24 hr by disk diffusion method
Candida albicans [5] = experiment: Antifungal activity against Candida albicans at 100 ug/ml after 48 hr by disk diffusion method
Bacillus subtilis [6] = experiment: Antibacterial activity against Bacillus subtilis at 100 ug/ml after 24 hr by disk diffusion method
Staphylococcus aureus [7] = experiment: Antibacterial activity against Staphylococcus aureus at 200 ug/ml after 24 hr by disk diffusion method
Candida albicans [8] = experiment: Antifungal activity against Candida albicans at 200 ug/ml after 48 hr by disk diffusion method
Escherichia coli [9] = experiment: Antibacterial activity against Escherichia coli at 50 ug/ml after 24 hr by disk diffusion method
Pseudomonas aeruginosa [10] = experiment: Antibacterial activity against Pseudomonas aeruginosa at 50 ug/ml after 24 hr by disk diffusion method
Escherichia coli [11] = experiment: Antibacterial activity against Escherichia coli at 200 ug/ml after 24 hr by disk diffusion method
Pseudomonas aeruginosa [12] = experiment: Antibacterial activity against Pseudomonas aeruginosa at 100 ug/ml after 24 hr by disk diffusion method
Aspergillus niger [13] = experiment: Antifungal activity against Aspergillus niger at 100 ug/ml after 48 hr by disk diffusion method
Staphylococcus aureus [14] = experiment: Antibacterial activity against Staphylococcus aureus at 50 ug/ml after 24 hr by disk diffusion method
Aspergillus niger [15] = experiment: Antifungal activity against Aspergillus niger at 50 ug/ml after 48 hr by disk diffusion method
Bacillus subtilis [16] = experiment: Antibacterial activity against Bacillus subtilis at 50 ug/ml after 24 hr by disk diffusion method
Staphylococcus aureus [17] = experiment: Antibacterial activity against Staphylococcus aureus at 100 ug/ml after 24 hr by disk diffusion method
Aspergillus niger [18] = experiment: Antifungal activity against Aspergillus niger at 200 ug/ml after 48 hr by disk diffusion method

Row | SMILES | zone of inhibition at 100 µg/mL (Escherichia coli [1]) [mm] | zone of inhibition at 200 µg/mL (Bacillus subtilis [2]) [mm] | zone of inhibition at 50 µg/mL (Candida albicans [3]) [mm] | zone of inhibition at 200 µg/mL (Pseudomonas aeruginosa [4]) [mm] | zone of inhibition at 100 µg/mL (Candida albicans [5]) [mm] | zone of inhibition at 100 µg/mL (Bacillus subtilis [6]) [mm] | zone of inhibition at 200 µg/mL (Staphylococcus aureus [7]) [mm] | zone of inhibition at 200 µg/mL (Candida albicans [8]) [mm] | zone of inhibition at 50 µg/mL (Escherichia coli [9]) [mm] | zone of inhibition at 50 µg/mL (Pseudomonas aeruginosa [10]) [mm] | zone of inhibition at 200 µg/mL (Escherichia coli [11]) [mm] | zone of inhibition at 100 µg/mL (Pseudomonas aeruginosa [12]) [mm] | zone of inhibition at 100 µg/mL (Aspergillus niger [13]) [mm] | zone of inhibition at 50 µg/mL (Staphylococcus aureus [14]) [mm] | zone of inhibition at 50 µg/mL (Aspergillus niger [15]) [mm] | zone of inhibition at 50 µg/mL (Bacillus subtilis [16]) [mm] | zone of inhibition at 100 µg/mL (Staphylococcus aureus [17]) [mm] | zone of inhibition at 200 µg/mL (Aspergillus niger [18]) [mm]
1 | O=C1NC(c2ccccc2)(c2ccccc2)C(=O)N1CN1CCOCC1 | 10 | 14 | 10 | 14 | 12 | 12 | 9 | 15 | 4 | 4 | 17 | 8 | 11 | 5 | 10 | 4 | 6 | 12
2 | CN1CCN(CN2C(=O)NC(c3ccccc3)(c3ccccc3)C2=O)CC1 | 13 | 19 | 12 | 10 | 13 | 12 | 20 | 13 | 6 | 4 | 16 | 6 | 12 | 6 | 11 | 4 | 12 | 12
3 | O=C1NC(c2ccccc2)(c2ccccc2)C(=O)N1Cn1nnc2ccccc21 | 10 | 22 | 11 | 14 | 12 | 14 | 18 | 13 | 3 | 6 | 18 | 10 | 11 | 6 | 11 | 5 | 12 | 11
4 | O=C1NC(c2ccccc2)(c2ccccc2)C(=O)N1Cn1ccnc1 | 16 | 15 | 17 | 20 | 24 | 11 | 20 | 30 | 6 | 6 | 22 | 10 | 17 | 6 | 15 | 5 | 11 | 19
5 | O=C1NC(c2ccccc2)(c2ccccc2)C(=O)N1Cn1cnc2ccccc21 | 15 | 23 | 16 | 14 | 24 | 13 | 15 | 32 | 7 | 6 | 24 | 11 | 19 | 5 | 16 | 5 | 13 | 32
6 | O=C1NC(c2ccccc2)(c2ccccc2)C(=O)N1CN1C(=O)c2ccccc2C1=O | 12 | 16 | 15 | 10 | 16 | 12 | 9 | 20 | 5 | 5 | 20 | 8 | 15 | 4 | 12 | 4 | 6 | 16
7 | O=C1NC(c2ccccc2)(c2ccccc2)C(=O)N1CNc1nc2ccccc2s1 | 15 | 21 | 17 | 20 | 18 | 10 | 19 | 32 | 6 | 7 | 23 | 12 | 19 | 5 | 16 | 7 | 10 | 31
8 | O=C1NC(c2ccccc2)(c2ccccc2)C(=O)N1CNc1nccs1 | 15 | 19 | 11 | 20 | 12 | 11 | 21 | 13 | 6 | 4 | 24 | 12 | 11 | 4 | 11 | 5 | 10 | 11
9 | CCN(CC)CN1C(=O)NC(c2ccccc2)(c2ccccc2)C1=O | 13 | 15 | 9 | 14 | 10 | 9 | 14 | 11 | 3 | 5 | 18 | 9 | 10 | 5 | 8 | 3 | 10 | 12
